Data set [1] is described as follows: Weight evolution of the animals following administration of LNPs. It is filed as in vivo. The following applies: female SWISS mice.
Data set [2] relates to expression of the luciferase saRNA. Briefly: In vivo bioluminescent imaging after intramuscular injection of LNP-formulated luciferase saRNA. The note with it: 1 μg LNP-formulated luciferase saRNA intramuscularly, female SWISS mice.
A short description of data set [3]: saRNA loading / encapsulation efficiency, Quant-IT RiboGreen assay. It is filed as physicochemical. The following applies: LNP lipid:DOPE:Cholesterol:DMG-PEG 35:20:43.5:1.5, firefly luciferase saRNA.
Data set [4] is described as follows: LNP particle size, polydispersity index and charge by Zeta Sizer. It is filed as physicochemical. The following applies: LNP lipid:DOPE:Cholesterol:DMG-PEG 35:20:43.5:1.5, firefly luciferase saRNA.

As for `CCCCCCCCC(CCCCCC)C(=O)OCCCCCCN(CCCCCCOC(=O)C(CCCCCC)CCCCCCCC)CCN1CCN(CCN(CCCCCCOC(=O)C(CCCCCC)CCCCCCCC)CCCCCCOC(=O)C(CCCCCC)CCCCCCCC)CC1` (stereo not shown) [Compound 9-37, ((piperazine-1,4-diylbis(ethane-2,1-diyl))bis(azanetriyl)) tetrakis(hexane-6,1-diyl) tetrakis(2-hexyldecanoate)], the “Weight” value in data set [1] (Day 0) was found to be 28.21 g; in data set [1] (Day 1, 1 μg LNP-formulated saRNA intramuscularly) it was 26.73 g; in data set [1] (Day 3, 1 μg LNP-formulated saRNA intramuscularly) it was 28.81 g; in data set [1] (Day 5, 1 μg LNP-formulated saRNA intramuscularly), 28.84 g; in data set [1] (Day 7, 1 μg LNP-formulated saRNA intramuscularly), 28.84 g; in data set [1] (Day 10, 1 μg LNP-formulated saRNA intramuscularly), 29.36 g. Also, the “Weight” value worked out at 30.63 g in data set [1] (Day 15, 1 μg LNP-formulated saRNA intramuscularly) and 31.61 g in data set [1] (Day 20, 1 μg LNP-formulated saRNA intramuscularly). Also, the “Bioluminescence expression of LNPs” value in data set [2] (Day 1) stood at 1.07E+07; in data set [2] (Day 3) it was 2.06E+08; in data set [2] (Day 5), 4.17E+08; in data set [2] (Day 7), 3.54E+08; in data set [2] (Day 10) it was 2.11E+06; in data set [2] (Day 15), 7.50E+04. Also, the “Bioluminescence expression of LNPs” value in data set [2] (Day 20) is listed as 2.65E+04. In addition, the “Encapsulation (%)” value in data set [3] is given as 92.32%. Also, in data set [4], the “Zetapotential (mV)” value is −9.93 mV. Besides, the “Polydispersity Index (PI)” value in data set [4] (N/P approx. 40/1) was 0.27. Also, in data set [4] (N/P approx. 40/1), the “Z-average (nm)” value came out at 89.43 nm.

The values are drawn from patent US20250236599A1, “LIPID NANOPARTICLES FOR OLIGONUCLEOTIDE DELIVERY” (ZIPHIUS NV, priority 2021, published 2025).
